From PubChem BioAssay AID1963422 (Molecular Pharmacology Branch, DTP, NCI, 2024)
Where “and” joins values, the source holds several entries; their conditions need not be identical. Equal values may be shown once. One block for each compound: values may come before it.

Tested on: 463943-066-T-J2-PDC complex spheroid growth
Assay: Anticancer human tumor 463943-066-T-J2-PDC patient-derived colon adenocarcinoma cell line growth inhibition [Asc]
Details: for viability, T/C: stronger effect = lower value
Procedure, shortened: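 Complex solid-tumor spheroids incorporating human endothelial and mesenchymal stem cells received single agents or combinations over half-log dilution ranges anchored to clinical Cmax.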
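Note: compound exposure lasted 7 days.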
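Throughout, for viability, T/C: 100% = DMSO vehicle control wells.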

IC50 (compound alone, run of 11/07/2022): > 10000 nM
SMILES: Cc1c(S(C)(=O)=O)c(-c2cc(F)cc(N3CCN(c4ccc(NS(=O)(=O)c5ccc(NC(CCN6CCC(C(=O)OCCCP(=O)(O)O)CC6)CSc6ccccc6)c(S(=O)(=O)C(F)(F)F)c5)cc4)CC3)c2)c(-c2ccc(Cl)cc2)n1C(C)C (configuration not stated)
viability, T/C (compound 0.0316 µM): 96.2% [middle of 7 runs] | viability, T/C (compound 0.1 µM): 94.8% [middle of 7 runs] | viability, T/C (compound 0.316 µM): 87.8% [middle of 7 runs] | viability, T/C (compound 1 µM): 78% [middle of 7 runs] | viability, T/C (compound 3.16 µM): 62.6% [middle of 7 runs] | viability, T/C (compound 10 µM): 56.5% [middle of 7 runs]

IC50 (curve of first compound, second compound 0.0316 µM): 5640 nM | IC50 (curve of first compound, second compound 0.1 µM): 4890 nM | IC50 (curve of first compound, second compound 0.316 µM): 3880 nM | IC50 (curve of first compound, second compound 1 µM): 2300 nM | IC50 (curve of first compound, second compound 3.16 µM): 1170 nM | IC50 (curve of first compound, second compound 10 µM): < 31.6 nM
SMILES: C=C(F)C(=O)N1CCN(c2nc(OCC3CCCN3C)nc3c2CCN(c2cccc4cccc(Cl)c24)C3)CC1CC#N (configuration not stated) + Cc1c(S(C)(=O)=O)c(-c2cc(F)cc(N3CCN(c4ccc(NS(=O)(=O)c5ccc(NC(CCN6CCC(C(=O)OCCCP(=O)(O)O)CC6)CSc6ccccc6)c(S(=O)(=O)C(F)(F)F)c5)cc4)CC3)c2)c(-c2ccc(Cl)cc2)n1C(C)C
viability, T/C (second compound 0.0316 µM, first compound 0.0316 µM): 92.4% | viability, T/C (second compound 0.0316 µM, first compound 0.1 µM): 95.5% | viability, T/C (second compound 0.0316 µM, first compound 0.316 µM): 95.9% | viability, T/C (second compound 0.0316 µM, first compound 1 µM): 106% | viability, T/C (second compound 0.0316 µM, first compound 3.16 µM): 93.1% | viability, T/C (second compound 0.0316 µM, first compound 10 µM): 7.35% | viability, T/C (second compound 0.1 µM, first compound 0.0316 µM): 98.2% | viability, T/C (second compound 0.1 µM, first compound 0.1 µM): 93.5% | viability, T/C (second compound 0.1 µM, first compound 0.316 µM): 90.8% | viability, T/C (second compound 0.1 µM, first compound 1 µM): 98.4% | viability, T/C (second compound 0.1 µM, first compound 3.16 µM): 79.5% | viability, T/C (second compound 0.1 µM, first compound 10 µM): 1.47% | viability, T/C (second compound 0.316 µM, first compound 0.0316 µM): 92% | viability, T/C (second compound 0.316 µM, first compound 0.1 µM): 85.7% | viability, T/C (second compound 0.316 µM, first compound 0.316 µM): 87% | viability, T/C (second compound 0.316 µM, first compound 1 µM): 85.7% | viability, T/C (second compound 0.316 µM, first compound 3.16 µM): 60.8% | viability, T/C (second compound 0.316 µM, first compound 10 µM): 0.26% | viability, T/C (second compound 1 µM, first compound 0.0316 µM): 80.3% | viability, T/C (second compound 1 µM, first compound 0.1 µM): 80.4% | viability, T/C (second compound 1 µM, first compound 0.316 µM): 72.5% | viability, T/C (second compound 1 µM, first compound 1 µM): 72.4% | viability, T/C (second compound 1 µM, first compound 3.16 µM): 41.8% | viability, T/C (second compound 1 µM, first compound 10 µM): 0.2% | viability, T/C (second compound 3.16 µM, first compound 0.0316 µM): 62.4% | viability, T/C (second compound 3.16 µM, first compound 0.1 µM): 58.4% | viability, T/C (second compound 3.16 µM, first compound 0.316 µM): 56.4% | viability, T/C (second compound 3.16 µM, first compound 1 µM): 54.5% | viability, T/C (second compound 3.16 µM, first compound 3.16 µM): 23.1% | viability, T/C (second compound 3.16 µM, first compound 10 µM): 0.22% | viability, T/C (second compound 10 µM, first compound 0.0316 µM): 46.1% | viability, T/C (second compound 10 µM, first compound 0.1 µM): 47.7% | viability, T/C (second compound 10 µM, first compound 0.316 µM): 47.4% | viability, T/C (second compound 10 µM, first compound 1 µM): 41.7% | viability, T/C (second compound 10 µM, first compound 3.16 µM): 16.4% | viability, T/C (second compound 10 µM, first compound 10 µM): 0.26%

IC50 (curve of compound): 6270 nM and 7000 nM
SMILES: C=C(F)C(=O)N1CCN(c2nc(OCC3CCCN3C)nc3c2CCN(c2cccc4cccc(Cl)c24)C3)CC1CC#N (configuration not stated)
viability, T/C (compound 0.0316 µM): 98.4% and 102% | viability, T/C (compound 0.1 µM): 102% and 94.9% | viability, T/C (compound 0.316 µM): 102% | viability, T/C (compound 1 µM): 109% and 106% | viability, T/C (compound 3.16 µM): 95.6% | viability, T/C (compound 10 µM): 18.6% and 29.3%

Continued, compound first:

SMILES: Cc1nc(N2CCC3(CC2)COC(C)C3N)c(CO)nc1Sc1ccnc(N)c1Cl (configuration not stated)
viability, T/C (compound 0.00949 µM): 97.7% and 107% (2×) | viability, T/C (compound 0.03 µM): 88.5% and 90.2% and 90.5% | viability, T/C (compound 0.0949 µM): 86.5% and 88.5% and 79.4% | viability, T/C (compound 0.3 µM): 87.4% and 87% and 82% | viability, T/C (compound 0.949 µM): 87% and 81.9% and 80.6% | viability, T/C (compound 3 µM): 70.8% (2×) and 71.8% | IC50 (curve of compound): > 3000 nM

SMILES: CCN1CCN(Cc2ccc(Nc3ncc(F)c(-c4cc(F)c5nc(C)n(C(C)C)c5c4)n3)nc2)CC1
viability, T/C (compound 0.00316 µM): 102% and 101% and 107% | viability, T/C (compound 0.01 µM): 99.4% and 93.9% and 78.5% | viability, T/C (compound 0.0316 µM): 100% and 108% and 97.6% | viability, T/C (compound 0.1 µM): 98.9% and 96% and 104% | viability, T/C (compound 0.316 µM): 113% and 108% and 115% | viability, T/C (compound 1 µM): 119% and 120% and 125% | IC50 (curve of compound): > 1000 nM

SMILES: NC(=O)C(=Cn1cnc(-c2cc(C(F)(F)F)cc(C(F)(F)F)c2)n1)c1cncnc1 + CCN1C(C(=O)NC23CCC(C(=O)O)(CC2)CC3)C(c2cccc(Cl)c2F)C2(C(=O)Nc3cc(Cl)ccc32)C12CCCCC2
IC50 (curve of first compound, second compound 0.00949 µM): > 300 nM | IC50 (curve of first compound, second compound 0.03 µM): > 300 nM | IC50 (curve of first compound, second compound 0.0949 µM): > 300 nM | IC50 (curve of first compound, second compound 0.3 µM): 156 nM | IC50 (curve of first compound, second compound 0.949 µM): 32.6 nM | IC50 (curve of first compound, second compound 3 µM): 15.1 nM | viability, T/C (second compound 0.00949 µM, first compound 0.000949 µM): 94.2% | viability, T/C (second compound 0.00949 µM, first compound 0.003 µM): 91.3% | viability, T/C (second compound 0.00949 µM, first compound 0.00949 µM): 82.5% | viability, T/C (second compound 0.00949 µM, first compound 0.03 µM): 87.4% | viability, T/C (second compound 0.00949 µM, first compound 0.0949 µM): 81% | viability, T/C (second compound 0.00949 µM, first compound 0.3 µM): 63.7% | viability, T/C (second compound 0.03 µM, first compound 0.000949 µM): 99.5% | viability, T/C (second compound 0.03 µM, first compound 0.003 µM): 92.6% | viability, T/C (second compound 0.03 µM, first compound 0.00949 µM): 81% | viability, T/C (second compound 0.03 µM, first compound 0.03 µM): 84.9% | viability, T/C (second compound 0.03 µM, first compound 0.0949 µM): 78.8% | viability, T/C (second compound 0.03 µM, first compound 0.3 µM): 62.5% | viability, T/C (second compound 0.0949 µM, first compound 0.000949 µM): 86.8% | viability, T/C (second compound 0.0949 µM, first compound 0.003 µM): 84.9% | viability, T/C (second compound 0.0949 µM, first compound 0.00949 µM): 80.7% | viability, T/C (second compound 0.0949 µM, first compound 0.03 µM): 78.6% | viability, T/C (second compound 0.0949 µM, first compound 0.0949 µM): 70.6% | viability, T/C (second compound 0.0949 µM, first compound 0.3 µM): 54.5% | viability, T/C (second compound 0.3 µM, first compound 0.000949 µM): 78.7% | viability, T/C (second compound 0.3 µM, first compound 0.003 µM): 75.4% | viability, T/C (second compound 0.3 µM, first compound 0.00949 µM): 68.7% | viability, T/C (second compound 0.3 µM, first compound 0.03 µM): 67.5% | viability, T/C (second compound 0.3 µM, first compound 0.0949 µM): 51.2% | viability, T/C (second compound 0.3 µM, first compound 0.3 µM): 44.5% | viability, T/C (second compound 0.949 µM, first compound 0.000949 µM): 68.1% | viability, T/C (second compound 0.949 µM, first compound 0.003 µM): 67.3% | viability, T/C (second compound 0.949 µM, first compound 0.00949 µM): 61% | viability, T/C (second compound 0.949 µM, first compound 0.03 µM): 52.1% | viability, T/C (second compound 0.949 µM, first compound 0.0949 µM): 37.8% | viability, T/C (second compound 0.949 µM, first compound 0.3 µM): 34.8% | viability, T/C (second compound 3 µM, first compound 0.000949 µM): 66% | viability, T/C (second compound 3 µM, first compound 0.003 µM): 63.6% | viability, T/C (second compound 3 µM, first compound 0.00949 µM): 56.9% | viability, T/C (second compound 3 µM, first compound 0.03 µM): 40% | viability, T/C (second compound 3 µM, first compound 0.0949 µM): 30.4% | viability, T/C (second compound 3 µM, first compound 0.3 µM): 29%
